The source made the active and inactive calls. The calls are words filed in the database; no cut-off is given here.
Assays:
Pseudomonas aeruginosa [1] = test: Antibacterial activity against Pseudomonas aeruginosa 27853 assessed as inhibition of bacterial growth at 256 ug/ml measured after 25 hrs by absorbance based assay; assay type: functional, organism-based; settings: dose 256.0 µg/ml
Bacillus subtilis = test: Antibacterial activity against penicillin-susceptible Bacillus subtilis ATCC9372 assessed as inhibition of bacterial growth incubated for 20 hrs by CLSI protocol based microdilution method; assay type: functional
Bacillus pumilus = test: Antibacterial activity against penicillin-susceptible Bacillus pumilus CMCC63202 assessed as inhibition of bacterial growth incubated for 20 hrs by CLSI protocol based microdilution method; assay type: functional
Staphylococcus aureus [2] = test: Antibacterial activity against erthromycin-susceptible Staphylococcus aureus ATCC25923 assessed as inhibition of bacterial growth incubated for 20 hrs by CLSI protocol based microdilution method; assay type: functional
Staphylococcus aureus [3] = test: Antibacterial activity against methicillin-resistant Staphylococcus aureus ATCC43300 assessed as inhibition of bacterial growth incubated for 20 hrs by CLSI protocol based microdilution method; assay type: functional
Pseudomonas aeruginosa [4] = test: Antibacterial activity against penicillin-susceptible Pseudomonas aeruginosa ATCC27853 assessed as inhibition of bacterial growth incubated for 20 hrs by CLSI protocol based microdilution method; assay type: functional
Escherichia coli = test: Antibacterial activity against penicillin-susceptible Escherichia coli ATCC25922 assessed as inhibition of bacterial growth incubated for 20 hrs by CLSI protocol based microdilution method; assay type: functional
Pseudomonas aeruginosa [5] = test: Antibacterial activity against wild type Pseudomonas aeruginosa […] CGMCC1.12483 assessed as inhibition of bacterial growth incubated for 20 hrs by CLSI protocol based microdilution method; assay type: functional
[6] = Inhibition of quorum sensing system in Pseudomonas aeruginosa PAO1 assessed as inhibition of pyocyanin production at 102.4 ug/ml incubated for 18 hrs by absorbance based assay; settings: dose 102.4 µg/ml
Pseudomonas aeruginosa [7] = test: Antibacterial activity against Pseudomonas aeruginosa PAO1 assessed as inhibition of bacterial growth at 256 ug/ml measured after 25 hrs by absorbance based assay; assay type: functional, organism-based; settings: dose 256.0 µg/ml
[8] = Inhibition of quorum sensing system in Pseudomonas aeruginosa PAO1 assessed as inhibition of protease activity at 102.4 ug/ml incubated for 24 hrs by absorbance based assay; settings: dose 102.4 µg/ml
[9] = Inhibition of quorum sensing system in Pseudomonas aeruginosa PAO1 assessed as inhibition of rhamnolipid production at 102.4 ug/ml incubated for 24 hrs by absorbance based assay; settings: dose 102.4 µg/ml
Pseudomonas aeruginosa [10] = test: Inhibition of biofilm formation in Pseudomonas aeruginosa PAO1 at 32 ug/ml incubated for 20 hrs by crystal violet staining based analysis; assay type: functional
[11] = Hemolytic activity in mouse red blood cells assessed as hemolysis rate at 512 ug/ml incubated for 1 hrs by microplate reader analysis relative to control; assay type: toxicity, cell-based, Erythrocyte; settings: red blood cells (erythrocytes), at 512 µg/mL, read-out: Activity
Pseudomonas aeruginosa [12] = test: Synergistic antibacterial activity against Pseudomonas aeruginosa 27853 assessed as inhibition of bacterial growth at 256 ug/ml incubated for 24 hrs in the presence of Clarithromycin by absorbance based microplate reader analysis relative to control; assay type: functional
Pseudomonas aeruginosa [13] = test: Synergistic antibacterial activity against Pseudomonas aeruginosa 27853 assessed as inhibition of bacterial growth at 256 ug/ml incubated for 24 hrs in the presence of Ciprofloxacin by absorbance based microplate reader analysis relative to control; assay type: functional
Pseudomonas aeruginosa [14] = test: Synergistic antibacterial activity against Pseudomonas aeruginosa 27853 assessed as inhibition of bacterial growth at 1 to 256 ug/ml incubated for 24 hrs in the presence of Ciprofloxacin by absorbance based microplate reader analysis; assay type: functional, organism-based; settings: dose 1-256 µg/ml
Pseudomonas aeruginosa [15] = test: Synergistic antibacterial activity against Pseudomonas aeruginosa 27853 assessed as inhibition of bacterial growth incubated for 24 hrs in the presence of Clarithromycin by absorbance based microplate reader analysis; assay type: functional, organism-based; settings: dose 1-256 µg/ml
Pseudomonas aeruginosa [16] = test: Synergistic antibacterial activity against Pseudomonas aeruginosa PAO1 assessed as inhibition of bacterial growth at 1 to 256 ug/ml incubated for 24 hrs in the presence of Clarithromycin by absorbance based microplate reader analysis; assay type: functional, organism-based; settings: dose 1-256 µg/ml
Pseudomonas aeruginosa [17] = test: Synergistic antibacterial activity against Pseudomonas aeruginosa PAO1 assessed as inhibition of bacterial growth at highest concentration incubated for 24 hrs in the presence of ciprofloxacin by absorbance based microplate reader analysis relative to control; assay type: functional
Pseudomonas aeruginosa [18] = test: Synergistic antibacterial activity against Pseudomonas aeruginosa PAO1 assessed as inhibition of bacterial growth at 1 ug/ml incubated for 24 hrs in the presence of ciprofloxacin by absorbance based microplate reader analysis relative to control; assay type: functional
Pseudomonas aeruginosa [19] = test: Synergistic antibacterial activity against Pseudomonas aeruginosa PAO1 assessed as inhibition of bacterial growth at 1 to 256 ug/ml incubated for 24 hrs in the presence of ciprofloxacin by absorbance based microplate reader analysis; assay type: functional, organism-based; settings: dose 1-256 µg/ml
Pseudomonas aeruginosa [20] = test: Antibacterial activity against Pseudomonas aeruginosa PAO1 assessed as inhibition of swarming movement at 25.6 to 102.4 ug/ml incubated for 24 hrs; assay type: functional, organism-based; settings: dose 25.6-102.4 µg/ml
Pseudomonas aeruginosa [21] = test: Synergistic antibacterial activity against Pseudomonas aeruginosa PAO1 infected in Kunming mouse model assessed as reduction in viable bacteria at 25 mg/kg, ip pre-infected with bacteria for 1 hrs followed by compound administration and measured after 1 hrs in the presence of ciprofloxacin; assay type: functional, organism-based
[22] = Inhibition of quorum sensing system in Pseudomonas aeruginosa PAO1 transfected with lasB-gfp reporter assessed as inhibition of fluorescence expression incubated for >=12 hrs by microplate reader analysis; settings: dose 32-256 µg/ml
[23] = Inhibition of quorum sensing system in Pseudomonas aeruginosa PAO1 transfected with rhlA-gfp reporter assessed as inhibition of fluorescence expression incubated for >=12 hrs by microplate reader analysis; settings: dose 32-256 µg/ml
[24] = Inhibition of quorum sensing system in Pseudomonas aeruginosa PAO1 transfected with pqsA-gfp reporter assessed as inhibition of fluorescence expression incubated for >=12 hrs by microplate reader analysis; settings: dose 32-256 µg/ml
[25] = Inhibition of quorum sensing system in Pseudomonas aeruginosa PAO1 transfected with gfp reporter gene assessed as effect on fluorescence expression at 32 to 256 ug/ml incubated for >=12 hrs by microplate reader analysis; settings: dose 32-256 µg/ml
[26] = Inhibition of quorum sensing system in Escherichia coli MG4/pKDT17 harboring lasR gene with lasB::lacZ translation fusion assessed as inhibition of lasR translation activation by measuring inhibition of […] activity incubated for 8 hrs by absorbance based analysis; settings: dose 32-128 µg/ml
[27] = Inhibition of quorum sensing system in Escherichia coli pDSY harboring rhlR gene with rhlA::lacZ translation fusion assessed as inhibition of rhlA translation activation by measuring inhibition of […] activity incubated for 8 hrs by absorbance based analysis; settings: dose 32-128 µg/ml
[28] = Inhibition of quorum sensing system in Escherichia coli pEAL08-2 harboring pqsR gene with pqsA::lacZ translation fusion assessed as inhibition of pqsA translation activation by measuring inhibition of […] activity incubated for 8 hrs by absorbance based analysis; settings: dose 32-128 µg/ml
Pseudomonas aeruginosa [29] = test: Inhibition of biofilm formation in Pseudomonas aeruginosa PAO1 assessed as effect on biofilm morphology at 102.4 ug/ml incubated for 24 hrs by scanning electron microscopic analysis; assay type: functional, organism-based; settings: dose 102.4 µg/ml

For `C=C1OC(=O)C(CNC(=O)c2ccc(F)cc2)=C1c1ccc(F)cc1`, the Activity (Pseudomonas aeruginosa [1]) was “inactive”, the MIC (Bacillus subtilis) was over 512 µg/mL and the MIC (Bacillus pumilus) was over 512 µg/mL. It also gave an MIC (Staphylococcus aureus [2]) of over 512 µg/mL, an MIC (Staphylococcus aureus [3]) of over 512 µg/mL and an MIC (Pseudomonas aeruginosa [4]) of over 512 µg/mL. For the same compound, the MIC (Escherichia coli) was over 512 µg/mL, the MIC (Pseudomonas aeruginosa [5]) was over 512 µg/mL and the inhibition [6] was 31.4%. For the same compound, the Activity (Pseudomonas aeruginosa [7]) was “inactive”, the inhibition [8] was 30.6% and the inhibition [9] was “Active”. The inhibition at 32 µg/mL (Pseudomonas aeruginosa [10]) was 50.7%, the hemolysis at 1 h, 512 ug/ml [11] was over 2.5% and the inhibition at 256 µg/mL (Pseudomonas aeruginosa [12]) was 82.8%. The inhibition at 256 µg/mL (Pseudomonas aeruginosa [13]) was 77.2%, the Activity (Pseudomonas aeruginosa [14]) was “Active” and the Activity (Pseudomonas aeruginosa [15]) was “Dose-Dependent Effect”. The Activity (Pseudomonas aeruginosa [16]) was “Active”, the “inhibition (INH)” value (Pseudomonas aeruginosa [17]) was 90.53% and the inhibition at 1 µg/mL (Pseudomonas aeruginosa [18]) was 60.5%. For the same compound, the Activity (Pseudomonas aeruginosa [19]) was “Active”, the Activity (Pseudomonas aeruginosa [20]) was “Active” and the Activity (Pseudomonas aeruginosa [21]) was “Active”. For the same compound, the inhibition [22] was “Dose-Dependent Effect”, the inhibition [23] was “Dose-Dependent Effect” and the inhibition [24] was “Dose-Dependent Effect”. For the same compound, the inhibition [25] was “inactive”, the inhibition [26] was “Dose-Dependent Effect” and the inhibition [27] was “Dose-Dependent Effect”. The inhibition [28] was “Dose-Dependent Effect” and the inhibition (Pseudomonas aeruginosa [29]) was “Active”.
